From US11904037B2, “Enzymatic molecule mimicking anti-oxidant activity” (BIONUCLEI, priority 2018, dated 2024)

Assay: ABTS degradation, comparison with tocopherol after dark or UV exposure
Conditions: colloids 0.5 g/L, tocopherol 1.5 g/L
Procedure: The protocol for preparing the solutions as in point 4.1/ was repeated with a concentration of ZnO/3-hydroxybenzaldehyde colloids of 0.5 g/L and a concentration of tocopherol of 1.5 g/L.
The solutions obtained were separated: a fraction of the solution being placed in the dark, and the remaining fraction being placed under UV irradiation. After 30 minutes of exposure (to the dark or to UV), 30 μL of a concentrated solution of ABTS (7 mM) was added, and the absorption was then measured.

ABTS degradation capacity (after 30 minutes of exposure to UV): 22%
ABTS degradation capacity (after 30 minutes of exposure to the dark): 22%
Substance: tocopherol
